Values after ≈ are worked out from the molar mass of the structure shown.

Type in all cases: cell-based
In one assay the test system is P. rettgeri UC 339. Nature of the assay: standard microplate test in BHI Agar (MIC). As to conditions: Providencia rettgeri, UC339, 37°, 20 hours, read-out: Minimum Inhibitory Concentration. On the procedure: (§1) The compounds VII, XI, XVβ, XVα and XVI were tested in a standard microplate test in BHI (Brain Heart Infusion) Agar at a concentration of 1 mg./ml. and dilutions thereof at 37° incubation temperature. The end points are read at 20 hours. BHI Agar is supplied by Difco Laboratories, Detroit, Michigan, U.S.A. and has the following compositions: […]

A further assay concerns S. aureus UC 76. Nature of the assay: standard microplate test in BHI Agar (MIC). As to conditions: Staphylococcus aureus, UC76, 37°, 20 hours, read-out: Minimum Inhibitory Concentration. On the procedure: as §1
Assay [1] deals with Ps. aeruginosa UC 95. Nature of the assay: standard microplate test in BHI Agar (MIC). The following applies: Pseudomonas aeruginosa, UC95, 37°, 20 hours, read-out: Minimum Inhibitory Concentration. On the procedure:
as §1

For a further assay, the system named is S. faecalis UC 694. In words: standard microplate test in BHI Agar (MIC). The following applies: Enterococcus faecalis, UC694, 37°, 20 hours, read-out: Minimum Inhibitory Concentration. On the procedure: as §1
The next assay has as its system S. marcescens UC 131. Nature of the assay: standard microplate test in BHI Agar (MIC). As to conditions: Serratia marcescens, UC131, 37°, 20 hours, read-out: Minimum Inhibitory Concentration. The procedure:
as §1

For the next assay, the system named is S. pyogenes UC 152. Nature of the assay: standard microplate test in BHI Agar (MIC). As to conditions: Streptococcus pyogenes, UC152, 37°, 20 hours, read-out: Minimum Inhibitory Concentration. The procedure:
as §1

The next assay deals with K. pneumoniae UC 58. Nature of the assay: standard microplate test in BHI Agar (MIC). As to conditions: Klebsiella pneumoniae, UC58, 37°, 20 hours, read-out: Minimum Inhibitory Concentration. On the procedure:
as §1

A further assay relates to B. subtilis UC 564. Nature of the assay: standard disc plate assay, zones of inhibition (12.5 mm paper discs). From the text:
(§2) The compounds of formulas (V, VII, IX, XI, XIV, XVI, and XIX) are active as antibacterials and can be used in various environments to erradicate or control susceptible microorganisms. Tables I and II set forth the in vitro antibacterial test results for representative compounds of the present invention. The results were obtained with a standard disc plate assay using 12.5 mm paper discs.

The test system of a further assay is K. pneumoniae UC 57. The assay is described as above.
Excerpt: as §2

The test system of a further assay is S. schottmuelleri UC 126. Described as above.
Excerpt: as §2

Another assay has as its system B. cereus UC 3145. The assay is described as above. As to conditions: 1 mg/ml.
Excerpt: as §2

A further assay concerns P. vulgaris UC 93. The description is as above.
Excerpt: as §2

The test system of a further assay is E. coli UC 51. The assay is described as above.
Excerpt: as §2

The next assay deals with S. aureus UC 80. Described as above.
Excerpt: as §2

Assay [2] deals with Ps. aeruginosa UC 95. Described as above. The following applies: 1 mg/ml.
Excerpt: as §2

As for `C[C@@]1(O)C[C@H](N)C[C@H](N)[C@H]1O[C@H]1O[C@H](CN)[C@@H](O)[C@H](O)[C@H]1N` [6-Deoxy-5-methyl-neamine], the MIC was more than 500 µg/mL with P. rettgeri UC 339, 15.6 µg/mL (≈ 48.7 µM) in the assay on S. aureus UC 76 and more than 500 µg/mL with Ps. aeruginosa UC 95 [1].
`NC[C@H]1O[C@H](O[C@H]2[C@H](O)C[C@H](N)C[C@@H]2N)[C@H](N)[C@@H](O)[C@@H]1O` [6-deoxyneamine (XI), 6-Deoxyneamine]: the MIC in the assay on S. faecalis UC 694 was more than 500 µg/mL; with S. marcescens UC 131 it was 250 µg/mL (≈ 816 µM); with P. rettgeri UC 339, 250 µg/mL (≈ 816 µM); in the assay with S. pyogenes UC 152, 15.6 µg/mL (≈ 50.9 µM); with K. pneumoniae UC 58, 7.8 µg/mL (≈ 25.5 µM); with Ps. aeruginosa UC 95 [1] it was more than 500 µg/mL.
Consider `NC[C@H]1O[C@H](O[C@H]2[C@H](O)[C@@H](O)[C@H](N)C[C@@H]2N)[C@H](N)[C@@H](O)[C@@H]1O` [Neamine], for which the “Zones of Inhibition” value with B. subtilis UC 564 (0.1 mg/ml) is 28 mm; with B. subtilis UC 564 (1 mg/ml), 37 mm; in the assay on K. pneumoniae UC 57 (0.1 mg/ml), 26 mm; in the assay on K. pneumoniae UC 57 (1 mg/ml) it was 32 mm; in the assay on S. schottmuelleri UC 126 (0.1 mg/ml), 15 mm; with S. schottmuelleri UC 126 (1 mg/ml), 23 mm. The “Zones of Inhibition” value in the assay on B. cereus UC 3145 is on record as 23 mm; in the assay on P. vulgaris UC 93 (0.1 mg/ml) it was 15 mm; in the assay with P. vulgaris UC 93 (1 mg/ml) it was 28 mm; in the assay on E. coli UC 51 (0.1 mg/ml) it was 18 mm; in the assay on E. coli UC 51 (1 mg/ml), 25 mm; with S. aureus UC 80 (0.1 mg/ml) it was 18 mm. Besides, the figures for the “Zones of Inhibition” value in the assay on S. aureus UC 80 (1 mg/ml) and in the assay with Ps. aeruginosa UC 95 [2] were 26 mm and 18 mm, respectively.
